Patent US6291676A, “Water-soluble derivatives of camptothecin/homocamptothecin” (priority 2000, dated 2001)

Columns and labels:
Type in all cases: physicochemical
[1] = HPLC lactone stability in presence of DMPG SUV; conditions: for less lactone compared to the prior art monoamine (7AEC): DMPG
Protocol: To further study the differential interactions of CT-17 versus 7AEC with liposomal particles, high performance liquid chromatographic (HPLC) methods were employed to study drug stabilities in the absence and presence of membranes. In these experiments, small unilamellar vesicles (SUV) composed of dimyristoyl phosphatidylcholine (DMPC) were prepared by weighing out dry lipid powder (Avanti Polar Lipids) in a glass tube with screw cap top. The lipid was suspended in phosphate buffered saline, pH 7.4, at the concentration of 20 mg/ml and vortexed vigorously for 1 minute. The suspension was sonicated in a bath-type sonicator (Laboratory Supplies Co., Hicksville, N.Y.) for 2-4 hours until optically clear solution is obtained. […] A decrease in pH from 7.4 to 7.2 was observed. The pH of the SUV preparation was adjusted to 7.4 by the addition of 0.1 M potassium hydroxide. The sample was resonicated after pH adjustment until optically clear. Small unilamellar vesicles composed of dimyristoyl phosphatidylglycerol (DMPG) were also prepared by weighing out dry powder of the lipid (Avanti Polar Lipids) in a glass tube with screw-cap top and prepared as in the case of DMPC. The pH of the preparation decreased from 7.4 to 6.9 and was adjusted to 7.4 by the addition of 0.1 M KOH. The preparation was resonicated for 30 minutes until optically clear.
Stock solutions of 7-(1-Aminoethyl)camptothecin, a monoamine compound known in the prior art, and CT-17 as prepared in Example 18 were prepared by weighing out dry powder and dissolving in dimethylsulfoxide (DMSO) at a concentration of 2 mM. The SUV preparations from above were incubated at 37° C. in a water bath for 30 minutes. The two camptothecin drugs were added to the SUV preparations such that the final drug concentrations were 1 μM. The samples were incubated at 37° C. and aliquots were withdrawn at 1 hour and 3 hours and added to cold methanol (-20° C.) and immediately analyzed by reversed-phase HPLC using the conditions as follows. Analysis was performed using either Waters Alliance 2690 LC system equipped with temperature controlled autosampler or Waters LC system equipped with temperature controlled 717 plus Autosampler and 501 pumps. The detection was using either Waters 470 or 474 fluorescence detectors. Solvent A was 2% triethylammonium acetate, pH 5.5 and Solvent B was acetonitrile. The column used was Waters Symmetry C18, 5 μm (3.9×150 mm). The autosampler temperature was maintained at 4-5° C. The conditions used for analysis of 7-(1-Aminoethyl)camptothecin: Isocratic elution using 15% of solvent A and 85% of solvent B; detection using λcx =370 and λcm =440. […] The HPLC data was collected and analyzed using Waters Millenium chromatography manager.

[2] = Fluorescence anisotropy titration: association with negatively-charged DMPG vesicles
Protocol: (§1) Vesicle Preparation. Small unilamellar vesicle (SUV) suspensions were prepared the day of an experiment by the method of Burke et al. (T. G. Burke, A. K. Mishra, M. C. Wani, and M. E. Wall, Lipid Bilayer Partitioning and Stability of Camptothecin Drugs, Biochem., 32(20), 5352 (1993)). Briefly, stock lipid suspensions containing 200 mg/mL lipid in phosphate buffered saline (PBS, pH 7.4) were prepared by Vortex mixing for 5-10 min above the TM of the lipid. The lipid dispersions were then sonicated using a bath-type sonicator (Laboratory Supplies Co., Hicksville, N.Y.) for 3-4 h until they became optically clear. […] Each type of vesicle suspension was annealed for 30 min at 37° C. and then used in an experiment.
(§2) Fluorescence Instrumentation. Steady-state fluorescence measurements were obtained on a SLM Model 9850 spectrofluorometer with a thermostated cuvette compartment. This instrument was interfaced with an IBM PS/2 model 55 SX computer. Excitation and emission spectra were recorded with an excitation resolution of 8 nm and an emission resolution of 4 nm. In all cases spectra were corrected for background fluorescence and scatter from unlabeled lipids or from solvents by subtraction of the spectrum of a blank. Steady-state fluorescence intensity measurements were made in the absence of polarizers. Steady-state anisotropy (a) measurements were determined with the instrument in the "T-format" for simultaneous measurement of two polarized intensities. […] The anisotropy was calculated from a =(IVV -GIVH)/(IVV +2GIVH), where G=IHV /IHH and the subscripts refer to vertical and horizontal orientations of the excitation and emission polarizers, respectively.
(§3) Anisotropy measurements for camptothecins were conducted using exciting light in the range of 370 nm to 400 nm and long pass filters on each emission channel in order to isolate the drug's fluorescence signal from background scatter and/or residual fluorescence. […] The combination of exciting light and emission filters allowed us to adequately separate fluorescence from background signal. […]

[3] = Fluorescence anisotropy titration: association with electroneutral DMPC vesicles
Protocol: as §1, §2, §3

For CC[C@@]1(O)C(=O)OCc2c1cc1n(c2=O)Cc2c-1nc1ccccc1c2CNN1CCN(C)CC1 [CT-17, 7-[N-(4-methyl-1-piperazino)aminomethyl]-(20S)-camptothecin], the remaining at 1 h, 1 µM ([1]; DMPG SUV, PBS pH 7.4, 37° C, 1 hr, 1 μM drug, read-out: Percentage of Lactone, DMPG, 1 Hr) was 87 ± 2%, the remaining at 3 h, 1 µM ([1]; DMPG SUV, PBS pH 7.4, 37° C, 3 hr, 1 μM drug, read-out: Percentage of Lactone, DMPG, 3 Hr) was 78 ± 3% and the “less lactone compared to the prior art monoamine (7AEC)” value ([1]; 1 hr) was 6%. For the same molecule, the “less lactone compared to the prior art monoamine (7AEC)” value ([1]; 3 hr) was 8%, the “Overall association constant KDMPG” value ([2]; PBS buffer, pH 7.4, physiological temperature, DMPG) was 800 M⁻¹ and the “reduction in membrane binding relative to 7AEC (negatively-charged membranes)” value ([2]; negatively-charged DMPG membranes) was “three-fold”. The “Overall association constant KDMPC” value ([3]; PBS buffer, pH 7.4, physiological temperature, DMPC) was 30 M⁻¹ and the “reduction in membrane binding relative to 7AEC (DMPC)” value ([3]; electroneutral DMPC membranes) was “greater than 2 fold”.
